From ChEMBL document CHEMBL1130731, “Methyloxime-substituted aminopyrrolidine: a new surrogate for 7-basic group of quinolone” (Bioorg Med Chem Lett, 1998)
≈ marks a conversion by molar mass, not a printed value.

Columns and labels:
[1] = test system: Staphylococcus aureus; test: In vitro antimicrobial activity against Staphylococcus aureus 241; assay type: functional
[2] = test system: Bacillus subtilis; test: In vitro antimicrobial activity against Bacillus subtilis ATCC 6633; assay type: functional
[3] = test system: Acinetobacter calcoaceticus; test: In vitro antimicrobial activity against Acinetobacter calcoaceticus 15473; assay type: functional
[4] = test system: Micrococcus luteus; test: In vitro antimicrobial activity against Micrococcus luteus ATCC 9341; assay type: functional
[5] = test system: Staphylococcus epidermidis; test: In vitro antimicrobial activity against Staphylococcus epidermis 178; assay type: functional
[6] = test system: Staphylococcus aureus; test: In vitro antimicrobial activity against Staphylococcus aureus giorgio; assay type: functional
[7] = test system: Pseudomonas aeruginosa; test: In vitro antimicrobial activity against Pseudomonas aeruginosa 1012E; assay type: functional
[8] = test system: Escherichia coli; test: In vitro antimicrobial activity against Escherichia coli 10536; assay type: functional
[9] = test system: Escherichia coli; test: In vitro antimicrobial activity against Escherichia coli 3190Y; assay type: functional
[10] = test system: Escherichia coli; test: In vitro antimicrobial activity against Escherichia coli TEM5 3739E; assay type: functional
[11] = test system: Klebsiella aerogenes; test: In vitro antimicrobial activity against Klebsiella aerogenes 1076E; assay type: functional
[12] = test system: Staphylococcus epidermidis; test: In vitro antimicrobial activity against Staphylococcus epidermis 887E; assay type: functional
[13] = test system: Escherichia coli; test: In vitro antimicrobial activity against Escherichia coli 851E; assay type: functional
[14] = test system: Enterobacter cloacae; test: In vitro antimicrobial activity against Enterobacter cloacae p99; assay type: functional
[15] = test system: Citrobacter koseri; test: In vitro antimicrobial activity against Citrobacter diversus 2046E; assay type: functional
[16] = test system: Salmonella typhimurium; test: In vitro antimicrobial activity against Salmonella Typhimurium 14028; assay type: functional, Salmonella enterica subsp. enterica serovar Typhimurium; settings: Salmonella enterica
[17] = test system: Staphylococcus aureus; test: In vitro antimicrobial activity against Staphylococcus aureus 77; assay type: functional
[18] = Half-life after administration of 20 mg/Kg oral dose in rat; assay type: ADME, organism-based; settings: in vivo
[19] = Bioavailability in rat (dose 20 mg/kg p.o.); assay type: ADME, organism-based; settings: in vivo, po
[20] = AUC value after administration of 20 mg/Kg oral dose in rat; assay type: ADME, organism-based; settings: plasma
[21] = Half-life after administration of 4 mg/Kg oral dose in dog; settings: in vivo
[22] = Bioavailability in dog (dose 4 mg/kg p.o.); assay type: ADME, organism-based, Canis lupus familiaris; settings: in vivo, po
[23] = Cmax value after administration of 20 mg/Kg oral dose in rat; assay type: ADME, organism-based; parameters: dose 20 mg/Kg, route oral; settings: in vivo
[24] = Tmax value after administration of 4 mg/Kg oral dose in dog; assay type: ADME, organism-based, Canis lupus familiaris; settings: in vivo
[25] = in vivo; settings: dog, po, 4 mg/kg
[26] = test system: Mus musculus; test: In vivo efficacy against systemic infection of Pseudomonas aeruginosa 1912E in mouse; assay type: functional
[27] = in vivo; settings: dog, po, 4 mg/kg; remark: listed apart in the source
[28] = Tmax value after administration of 20 mg/Kg oral dose in rat; assay type: ADME, organism-based; settings: in vivo
[29] = test system: Mus musculus; test: In vivo efficacy against systemic infection of Staphylococcus aureus giorgio in mouse; assay type: functional

| SMILES | MIC [1] [µg/mL] | MIC [2] [µg/mL] | MIC [3] [µg/mL] | MIC [4] [µg/mL] | MIC [5] [µg/mL] | MIC [6] [µg/mL] | MIC [7] [µg/mL] | MIC [8] [µg/mL] | MIC [9] [µg/mL] | MIC [10] [µg/mL] | MIC [11] [µg/mL] | MIC [12] [µg/mL] | MIC [13] [µg/mL] | MIC [14] [µg/mL] | MIC [15] [µg/mL] | MIC [16] [µg/mL] | MIC [17] [µg/mL] | AUC [20] [ng·h/mL] | Cmax [23] [ng/mL] | Tmax [24] [min] | other results |
| --- | --- | --- | --- | --- | --- | --- | --- | --- | --- | --- | --- | --- | --- | --- | --- | --- | --- | --- | --- | --- | --- |
| NC1CN(c2c(F)cc3c(=O)c(C(=O)O)cn(C4CC4)c3c2F)C/C1=N\OCCF (stereo not drawn) | 2 (≈ 4.71 µM) | 0.016 (≈ 0.0377 µM) | 0.13 (≈ 0.306 µM) | 0.25 (≈ 0.589 µM) | 2 (≈ 4.71 µM) | 0.031 (≈ 0.073 µM) | 2 (≈ 4.71 µM) | 0.031 (≈ 0.073 µM) | 0.016 (≈ 0.0377 µM) | 0.25 (≈ 0.589 µM) | 0.25 (≈ 0.589 µM) | 0.063 (≈ 0.148 µM) | 0.031 (≈ 0.073 µM) | 0.016 (≈ 0.0377 µM) | 0.13 (≈ 0.306 µM) | 0.13 (≈ 0.306 µM) | 0.063 (≈ 0.148 µM) | – | – | – | – |
| CO/N=C1\CN(c2c(F)cc3c(=O)c(C(=O)O)cn(C4CC4)c3c2F)CC1N (stereo not drawn) | 2 (≈ 5.1 µM) | ≤ 0.008 | 0.016 (≈ 0.0408 µM) | 0.13 (≈ 0.331 µM) | 2 (≈ 5.1 µM) | ≤ 0.008 | 1 (≈ 2.55 µM) | ≤ 0.008 | ≤ 0.008 | 0.25 (≈ 0.637 µM) | 0.13 (≈ 0.331 µM) | 0.016 (≈ 0.0408 µM) | 0.031 (≈ 0.079 µM) | ≤ 0.008 | 0.063 (≈ 0.161 µM) | 0.063 (≈ 0.161 µM) | 0.016 (≈ 0.0408 µM) | 179000 | 22800 | 13.8 | half-life [18]: 311 min; bioavailability [19]: > 100%; half-life [21]: 140 min; bioavailability [22]: > 100%; AUC ([25]; plasma): 12900 ng·h/mL; ED50 [26]: 9.69 mg/kg; Cmax [27]: 3440 ng/mL; Tmax [28]: 10.8 min; ED50 [29]: 0.87 mg/kg |
| CO/N=C1/CN(c2cc3c(cc2F)c(=O)c(C(=O)O)cn3C2CC2)CC1N (stereo not drawn) | 32 (≈ 85.5 µM) | ≤ 0.008 | 0.031 (≈ 0.0828 µM) | 0.25 (≈ 0.668 µM) | 16 (≈ 42.7 µM) | 0.016 (≈ 0.0427 µM) | 1 (≈ 2.67 µM) | 0.016 (≈ 0.0427 µM) | ≤ 0.008 | 0.5 (≈ 1.34 µM) | 0.25 (≈ 0.668 µM) | 0.031 (≈ 0.0828 µM) | 0.031 (≈ 0.0828 µM) | ≤ 0.008 | 0.031 (≈ 0.0828 µM) | 0.13 (≈ 0.347 µM) | 0.031 (≈ 0.0828 µM) | – | – | – | – |
| NC1CN(c2c(F)cc3c(=O)c(C(=O)O)cn(C4CC4)c3c2F)C/C1=N\O (stereo not drawn) | 32 (≈ 84.6 µM) | 0.063 (≈ 0.167 µM) | 0.5 (≈ 1.32 µM) | 0.25 (≈ 0.661 µM) | 64 (≈ 169 µM) | 0.063 (≈ 0.167 µM) | 1 (≈ 2.64 µM) | 0.016 (≈ 0.0423 µM) | ≤ 0.008 | 0.5 (≈ 1.32 µM) | 0.5 (≈ 1.32 µM) | 0.13 (≈ 0.344 µM) | 0.031 (≈ 0.0819 µM) | 0.031 (≈ 0.0819 µM) | 0.13 (≈ 0.344 µM) | 0.63 (≈ 1.67 µM) | 0.063 (≈ 0.167 µM) | – | – | – | – |
| O=C(O)c1cn(C2CC2)c2cc(N3CCNCC3)c(F)cc2c1=O [CIPROFLOXACIN] | 128 (≈ 386 µM) | 0.031 (≈ 0.0936 µM) | 0.25 (≈ 0.754 µM) | 4 (≈ 12.1 µM) | 128 (≈ 386 µM) | 0.25 (≈ 0.754 µM) | 0.13 (≈ 0.392 µM) | ≤ 0.008 | ≤ 0.008 | 0.13 (≈ 0.392 µM) | 0.13 (≈ 0.392 µM) | 0.13 (≈ 0.392 µM) | – | – | 0.016 (≈ 0.0483 µM) | 0.031 (≈ 0.0936 µM) | 0.25 (≈ 0.754 µM) | 2590 | 900 | 67.2 | AUC ([25]; in vivo): 4540 ng·h/mL; ED50 [26]: 3.11 mg/kg; Cmax [27]: 910 ng/mL; Tmax [28]: 6.6 min; ED50 [29]: 7.46 mg/kg |
